Data taken from EP4737445A1, “NOVEL SATURATED HETEROCYCLE-SUBSTITUTED HETEROARYL-CARBONOHYDRAZONOYL DICYANIDE COMPOUND AND USE THEREOF” (Korea Institute of Science and Technology, priority 2023, dated 2025).

Experiments:
[1] = tested on: Tau-BiFC cells; test: Cell viability (stained nuclei count) in Tau-BiFC cells; assay type: cell-based; conditions: @10 µM; Tau-BiFC cell line; Forskolin-only group = 100%
Method: (§1) To screen for new tau aggregation inhibitors, a Tau-BiFC cell model that facilitates observation of tau oligomer formation in living cells was used. Tau-BiFC cells were dispensed into a 384-well plate, and the next day, the compounds prepared according to Examples 1 to 46 were treated at concentrations of 1, 3, and 10 µM, respectively, together with Forskolin (treatment concentration 30 µM), which is a compound that induces tau aggregation by activating the tau phosphorylation enzyme PKA. After 48 hours, nuclei within cells were stained using Hoechst (treatment concentration 2 µg/mL), and BiFC fluorescence intensity was automatically quantified using Operetta (Perkin Elmer) to count the stained nuclei in each well from the entire plate. The group treated only with Forskolin, which induces tau aggregation, was set as the reference point with 100% tau aggregation state, and the effect was confirmed by the formula "BiFC fluorescence intensity by the compounds synthesized according to the Examples of the disclosure/(fluorescence intensity of the control group treated only with Forskolin that induces tau aggregation - fluorescence intensity of the untreated control group) × 100". In addition, the degree of cytotoxicity induced by the newly synthesized compounds was also calculated using the formula "(number of stained nuclei in the compound-treated group/number of stained nuclei in the Forskolin-treated group) × 100", with the group treated only with Forskolin as the reference point at 100% viability. From the treatment results, substances that inhibit intracellular tau aggregation were identified through screening from a series of candidates based on the criteria of 70% or more tau aggregation inhibition and 100% cell viability at a compound treatment concentration of 10 µM.
(§2) To confirm the tau aggregation inhibitory effect according to the concentration of the compounds screened in Experimental Example 1, the screened compounds were treated to Tau-BiFC cells at concentrations of 0.03, 0.1, 0.3, 1, 3, 10, and 30 µM, respectively, together with Forskolin (treatment concentration 30 µM), which is a tau aggregation-inducing substance. After 48 hours, cell images were examined to analyze the tau aggregation reaction and degree of cytotoxicity. The IC50 and toxicity of the compounds were analyzed by nonlinear regression analysis using Prism software (GraphPad). The calculated results for representative compounds are shown in Table 3 below: Tau aggregation inhibitory effect and cell viability of novel compounds.

[2] = Liver microsomal stability, rat; assay type: in vitro ADME; conditions: 1 µM compound; 0.5 mg/mL microsomes; NADPH; 30 minutes at 37°C
Method: (§3) Liver microsomal stability by the compounds prepared according to Examples 1 to 46 was confirmed. Specifically, four types of liver microsomes (human, dog, rat, and mouse each at 0.5 mg/mL), 0.1 M phosphate buffer solution (pH 7.4), and the compounds at 1 µM concentration were added and pre-incubated at 37°C for 5 minutes, and then NADPH generation system solution was added and incubated at 37°C for an additional 30 minutes. Thereafter, an acetonitrile solution containing an internal standard (chloropropamide) was added to terminate the reaction, and after centrifugation for 5 minutes (14,000 rpm, 4°C), the supernatant was injected into an LC-MS/MS system to analyze the substrate drug, thereby evaluating the metabolic stability of 8 compounds.
(§4) The amount of remaining substrate through the reaction was analyzed using a Shimadzu Nexera XR system and TSQ vantage (Thermo). A Kinetex XB-C18 (2.1 × 100 mm, 2.6 µm, particle size; Phenomenex, USA) was used as the HPLC column, and (A) distilled water containing 0.1% formic acid and (B) acetonitrile containing 0.1% formic acid were used as mobile phases. Analyst software (version 1.6.3) and Xcalibur (version 1.6.1) were used for data analysis. The calculated results are shown in Table 5 below: Liver microsomal stability data of novel compounds from […] (human, rat, and mouse).

[3] = biological target: T1, TDP-43 protein (Homo sapiens, UniProt Q13148); test: TDP-43 aggregation inhibition in TDP-43-BiFC cell model (Forskolin-induced); assay type: cell-based; conditions: read-out: TDP-43 protein aggregation inhibitory effect: Aggregation inhibitory effect (%) (@3 uM)
T1 construct: BiFC fluorescent-protein fragments (two complementary halves); expressed in transfected cells
T1 sequence (Q13148 whole entry, the tested form may be a part): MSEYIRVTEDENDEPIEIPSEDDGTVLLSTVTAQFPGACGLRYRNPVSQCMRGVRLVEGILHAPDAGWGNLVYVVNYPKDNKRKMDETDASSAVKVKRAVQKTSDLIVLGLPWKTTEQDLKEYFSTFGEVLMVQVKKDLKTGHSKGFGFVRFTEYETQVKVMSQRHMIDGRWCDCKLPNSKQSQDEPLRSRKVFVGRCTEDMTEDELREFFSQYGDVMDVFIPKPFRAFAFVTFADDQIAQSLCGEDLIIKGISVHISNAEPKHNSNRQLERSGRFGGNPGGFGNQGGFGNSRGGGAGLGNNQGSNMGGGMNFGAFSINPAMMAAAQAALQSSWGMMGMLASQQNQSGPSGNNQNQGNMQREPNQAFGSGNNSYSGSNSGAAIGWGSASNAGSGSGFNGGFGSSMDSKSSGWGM
Method: (§5) To screen for new TDP-43 aggregation inhibitors, a TDP-43-BiFC cell model that facilitates observation of TDP-43 aggregate formation in living cells was used. Specifically, TDP-43-BiFC cells were dispensed into a 384-well plate, and the next day, the compounds prepared according to Examples 1 to 46 were treated at concentrations of 3 and 10 µM, respectively, together with Forskolin (treatment concentration 30 µM), which is a compound that induces TDP-43 aggregation by activating the phosphorylation enzyme PKA. After 48 hours, nuclei within cells were stained using Hoechst (treatment concentration 1 µg/mL), and BiFC fluorescence intensity was automatically quantified using Operetta (PerkinElmer) to count the stained nuclei in each well from the entire plate. The group treated only with Forskolin, which induces TDP-43 aggregation, was set as the reference point with 100% TDP-43 aggregation state, and the effect was confirmed by the formula "(BiFC fluorescence intensity by the compounds synthesized according to the Examples of the disclosure - fluorescence intensity of the untreated control group)/(fluorescence intensity of the control group treated only with Forskolin that induces TDP-43 aggregation - fluorescence intensity of the untreated control group) × 100". In addition, the degree of cytotoxicity induced by the newly synthesized compounds was also calculated using the formula "(number of stained nuclei in the compound-treated group/number of stained nuclei in the Forskolin-treated group) × 100", with the group treated only with Forskolin as the reference point at 100% viability. From the treatment results, substances that inhibit intracellular TDP-43 aggregation were identified through screening from a series of candidates based on the criteria of 80% or more TDP-43 aggregation inhibition and 60% cell viability at a compound treatment concentration of 3 µM.
(§6) Furthermore, to confirm the TDP-43 aggregation inhibitory effect according to the concentration of the compounds screened in Experimental Example 3, the screened compounds were treated to […] at concentrations of 0.003, 0.01, 0.03, 0.1, 0.3, 1, 3, and 10 µM, respectively, together with Forskolin (treatment concentration 30 µM), which is a TDP-43 aggregation-inducing substance. After 48 hours, cell images were examined to analyze the TDP-43 aggregation reaction and degree of cytotoxicity. The IC50 and toxicity of the compounds were analyzed by nonlinear regression analysis using Prism software (GraphPad). The calculated results for representative compounds are shown in Table 4 below: TDP-43 protein aggregation inhibitory effect and cell viability of novel compounds.

[4] = Liver microsomal stability, mouse; assay type: in vitro ADME; conditions: 1 µM compound; 0.5 mg/mL microsomes; NADPH; 30 minutes at 37°C
Method: as §3, §4

[5] = tested on: TDP-43 BiFC cells; test: Cell viability (stained nuclei count) in TDP-43-BiFC cells; assay type: cell-based; conditions: Forskolin-only group = 100%
Method: as §5, §6

[6] = biological target: T2, Tau (Homo sapiens, UniProt P10636); test: Tau aggregation inhibition in Tau-BiFC cell model (Forskolin-induced); assay type: cell-based
T2 construct: BiFC fluorescent-protein fragments (two complementary halves on two tau copies); expressed in transfected cells
T2 sequence (P10636 1-441 isoform P10636-8): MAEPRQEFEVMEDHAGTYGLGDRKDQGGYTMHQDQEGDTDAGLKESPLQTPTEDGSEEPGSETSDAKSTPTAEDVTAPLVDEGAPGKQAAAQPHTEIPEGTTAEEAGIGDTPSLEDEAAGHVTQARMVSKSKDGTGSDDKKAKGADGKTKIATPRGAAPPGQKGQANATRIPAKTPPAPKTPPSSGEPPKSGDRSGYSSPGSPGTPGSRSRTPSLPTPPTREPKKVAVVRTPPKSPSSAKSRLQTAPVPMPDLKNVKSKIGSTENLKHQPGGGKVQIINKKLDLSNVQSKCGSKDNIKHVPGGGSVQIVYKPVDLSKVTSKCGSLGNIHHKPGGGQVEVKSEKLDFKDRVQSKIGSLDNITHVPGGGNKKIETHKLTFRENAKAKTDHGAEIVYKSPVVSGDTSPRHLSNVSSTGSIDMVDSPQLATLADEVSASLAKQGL
Method: as §1, §2

[7] = Liver microsomal stability, human; assay type: in vitro ADME; conditions: 1 µM compound; 0.5 mg/mL microsomes; NADPH; 30 minutes at 37°C
Method: as §3, §4

[8] = biological target: T3, CYP2C9 (Homo sapiens, UniProt P11712); test: CYP isoenzyme activity inhibition in human liver microsomes, CYP2C9; assay type: in vitro ADME; conditions: 10 µM compound; human liver microsomes 0.25 mg/mL; relative to control without compound
T3 construct: human liver microsomes (0.25 mg/mL); from tissue; host or cells: human liver microsomes
T3 sequence (P11712 whole entry): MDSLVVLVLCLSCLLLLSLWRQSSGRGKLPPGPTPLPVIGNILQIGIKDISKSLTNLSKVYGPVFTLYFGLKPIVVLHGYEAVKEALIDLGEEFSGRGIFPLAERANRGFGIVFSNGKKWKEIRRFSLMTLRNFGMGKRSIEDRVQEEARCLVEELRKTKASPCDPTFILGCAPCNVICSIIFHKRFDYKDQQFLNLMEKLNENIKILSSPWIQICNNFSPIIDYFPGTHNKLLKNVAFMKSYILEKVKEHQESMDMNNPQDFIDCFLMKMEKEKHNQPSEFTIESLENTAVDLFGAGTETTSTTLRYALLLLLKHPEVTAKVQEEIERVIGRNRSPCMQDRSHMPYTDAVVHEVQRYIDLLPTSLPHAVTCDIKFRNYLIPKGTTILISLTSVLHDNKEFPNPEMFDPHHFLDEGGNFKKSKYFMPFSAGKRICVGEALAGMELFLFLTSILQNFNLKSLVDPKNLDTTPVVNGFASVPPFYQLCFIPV
Method: (§7) The CYP isoenzyme activity inhibitory effect by the compounds prepared according to Examples 1 to 46 was confirmed. Specifically, human liver microsomes (0.25 mg/mL), 0.1 M phosphate buffer solution (pH 7.4), a substrate drug cocktail of five drug metabolizing enzymes (Phenacetin 50 µM, Diclofenac 10 µM, S-mephenytoin 100 µM, Dextromethorphan 5 µM, and Midazolam 2.5 µM), and the compounds were added at concentrations of 0 or 10 µM, respectively, and pre-incubated at 37°C for 5 minutes, and then NADPH generation system solution was added and incubated at 37°C for an additional 15 minutes. Thereafter, an acetonitrile solution containing an internal standard (Terfenadine) was added to terminate the reaction, and after centrifugation for 5 minutes (14,000 rpm, 4°C), the supernatant was injected into an LC-MS/MS system to simultaneously analyze the metabolites of the substrate drugs, thereby evaluating the drug metabolizing enzyme inhibitory activity.
(§8) The metabolites of each CYP isoenzyme marker drug generated through the reaction were analyzed using a Shimadzu Nexera XR system and TSQ vantage (Thermo). A Kinetex C18 (2.1 × 100 mm, 2.6 µm, particle size; Phenomenex, USA) was used as the HPLC column, and (A) distilled water containing 0.1% formic acid and (B) acetonitrile containing 0.1% formic acid were used as mobile phases, and a gradient program as shown in Table 6 below was applied.
(§9) The generated metabolites were quantified using MRM (Multiple Reaction Monitoring) quantitative mode, and Xcalibur (version 1.6.1) was used for data analysis. To show the CYP isoenzyme activity inhibitory effect of the novel compounds prepared according to the Examples of the disclosure, the % activity of CYP isoenzymes relative to the control group without compound addition is shown in Table 6 below. Additionally, to confirm the difference in effect according to substituents, Comparative Compounds 1 and 5, which are two compounds that share a similar parent nucleus structure with Compounds 1 to 46 of the disclosure while Cy is substituted with aromatic heteroaryl instead of saturated heterocyclyl, were selected as comparative compounds and their activities are shown together.

[9] = biological target: T4, CYP2C19 (Homo sapiens, UniProt P33261); test: CYP isoenzyme activity inhibition in human liver microsomes, CYP2C19; assay type: in vitro ADME; conditions: 10 µM compound; human liver microsomes 0.25 mg/mL; relative to control without compound
T4 construct: human liver microsomes (0.25 mg/mL); from tissue; host or cells: human liver microsomes
T4 sequence (P33261 whole entry): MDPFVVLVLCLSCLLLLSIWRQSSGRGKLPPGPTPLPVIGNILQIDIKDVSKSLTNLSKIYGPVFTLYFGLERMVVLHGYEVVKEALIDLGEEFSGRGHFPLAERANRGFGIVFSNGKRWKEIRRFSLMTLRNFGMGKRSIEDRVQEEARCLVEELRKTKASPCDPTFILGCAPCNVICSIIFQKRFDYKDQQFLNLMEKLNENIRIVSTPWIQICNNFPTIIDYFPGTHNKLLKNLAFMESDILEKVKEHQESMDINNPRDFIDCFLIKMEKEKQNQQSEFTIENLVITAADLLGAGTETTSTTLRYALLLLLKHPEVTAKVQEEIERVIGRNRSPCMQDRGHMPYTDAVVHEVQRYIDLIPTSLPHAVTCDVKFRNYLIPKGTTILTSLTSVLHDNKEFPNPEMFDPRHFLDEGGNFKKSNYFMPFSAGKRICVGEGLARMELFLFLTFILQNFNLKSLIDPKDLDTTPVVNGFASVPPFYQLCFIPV
Method: as §7, §8, §9

[10] = biological target: T5, CYP3A4 (Homo sapiens, UniProt P08684); test: CYP isoenzyme activity inhibition in human liver microsomes, CYP3A4; assay type: in vitro ADME; conditions: 10 µM compound; human liver microsomes 0.25 mg/mL; relative to control without compound
T5 construct: human liver microsomes (0.25 mg/mL); from tissue; host or cells: human liver microsomes
T5 sequence (P08684 whole entry): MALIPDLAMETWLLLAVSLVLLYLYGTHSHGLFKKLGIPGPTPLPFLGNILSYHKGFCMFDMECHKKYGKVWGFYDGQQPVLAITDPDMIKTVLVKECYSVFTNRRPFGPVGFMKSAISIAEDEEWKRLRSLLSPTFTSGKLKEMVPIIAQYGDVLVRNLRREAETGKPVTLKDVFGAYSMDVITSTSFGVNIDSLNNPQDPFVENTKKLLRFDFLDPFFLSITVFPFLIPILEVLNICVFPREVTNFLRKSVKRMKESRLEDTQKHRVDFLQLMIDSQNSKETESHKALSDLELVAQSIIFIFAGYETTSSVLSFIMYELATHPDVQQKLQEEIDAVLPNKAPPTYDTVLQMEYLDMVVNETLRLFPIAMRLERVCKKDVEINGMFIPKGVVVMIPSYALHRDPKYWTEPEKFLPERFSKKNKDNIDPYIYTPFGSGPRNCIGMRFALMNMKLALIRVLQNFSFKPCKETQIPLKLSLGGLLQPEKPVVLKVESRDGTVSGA
Method: as §7, §8, §9

[11] = biological target: T6, CYP2D6 (Homo sapiens, UniProt P10635); test: CYP isoenzyme activity inhibition in human liver microsomes, CYP2D6; assay type: in vitro ADME; conditions: 10 µM compound; human liver microsomes 0.25 mg/mL; relative to control without compound
T6 construct: human liver microsomes (0.25 mg/mL); from tissue; host or cells: human liver microsomes
T6 sequence (P10635 whole entry): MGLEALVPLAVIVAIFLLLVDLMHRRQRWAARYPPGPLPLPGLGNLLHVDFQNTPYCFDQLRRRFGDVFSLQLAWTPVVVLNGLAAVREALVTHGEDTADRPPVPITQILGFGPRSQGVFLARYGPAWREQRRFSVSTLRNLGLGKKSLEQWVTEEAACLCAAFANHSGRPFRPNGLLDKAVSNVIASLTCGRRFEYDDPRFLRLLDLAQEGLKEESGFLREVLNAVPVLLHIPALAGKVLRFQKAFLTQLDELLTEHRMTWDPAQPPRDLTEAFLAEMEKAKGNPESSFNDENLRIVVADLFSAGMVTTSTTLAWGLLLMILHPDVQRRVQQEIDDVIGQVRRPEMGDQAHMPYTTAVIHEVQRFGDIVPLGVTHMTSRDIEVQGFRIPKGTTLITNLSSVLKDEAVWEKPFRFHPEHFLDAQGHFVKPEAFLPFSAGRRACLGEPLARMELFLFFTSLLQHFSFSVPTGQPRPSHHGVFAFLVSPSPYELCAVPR
Method: as §7, §8, §9

[12] = biological target: T7, CYP1A2 (Homo sapiens, UniProt P05177); test: CYP isoenzyme activity inhibition in human liver microsomes, CYP1A2; assay type: in vitro ADME; conditions: 10 µM compound; human liver microsomes 0.25 mg/mL; relative to control without compound
T7 construct: human liver microsomes (0.25 mg/mL); from tissue; host or cells: human liver microsomes
T7 sequence (P05177 1-516): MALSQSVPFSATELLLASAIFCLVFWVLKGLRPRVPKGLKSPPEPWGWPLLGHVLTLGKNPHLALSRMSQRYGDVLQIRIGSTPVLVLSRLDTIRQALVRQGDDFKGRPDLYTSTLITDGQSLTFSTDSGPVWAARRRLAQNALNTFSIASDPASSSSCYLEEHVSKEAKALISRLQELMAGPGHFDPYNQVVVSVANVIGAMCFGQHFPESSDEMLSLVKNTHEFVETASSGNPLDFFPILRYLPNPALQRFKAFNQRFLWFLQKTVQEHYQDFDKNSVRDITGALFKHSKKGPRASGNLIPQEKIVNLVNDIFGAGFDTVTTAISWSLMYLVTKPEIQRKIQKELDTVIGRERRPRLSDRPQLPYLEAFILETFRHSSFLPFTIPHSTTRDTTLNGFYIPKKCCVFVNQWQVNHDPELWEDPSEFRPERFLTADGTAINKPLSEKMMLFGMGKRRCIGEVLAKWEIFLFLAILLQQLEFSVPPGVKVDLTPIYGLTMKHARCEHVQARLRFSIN
Method: as §7, §8, §9

Row | SMILES | Cell viability (% @10µM) [1] | Rat microsomes (% remaining) [2] | inhibition at 3 µM [3] | Mouse microsomes (% remaining) [4] | Cell viability (%) (@ 3 uM) [5] | IC50 [6] | Human microsomes (% remaining) [7] | CYP2C9 (% activity) [8] | CYP2C19 (% activity) [9] | CYP3A4 (% activity) [10] | CYP2D6 (% activity) [11] | CYP1A2 (% activity) [12]
1 | Cc1nc2ccc(NN=C(C#N)C#N)cc2s1 [Comparative compound 1, N-(2-methylbenzo[d]thiazol-6-yl)carbonohydrazonoyl dicyanide, reference compound] | 100% | 1.2 % remaining | 72.9% | 1.2 % remaining | 79.0% | 500 nM | 37.0 % remaining |  |  |  |  | 
2 | N#CC(C#N)=NNc1ccc2nc(N3CCOCC3)[nH]c2c1 [Compound 7, (2-morpholino-1H-benzo[d]imidazol-6-yl)carbonohydrazonoyl dicyanide] | 100% |  |  |  |  | 64 nM |  | 67.8 % activity | 95.1 % activity | 83.1 % activity | > 100 % activity | 57.6 % activity
3 | Cc1ccc(-c2nc3ccc(NN=C(C#N)C#N)cc3s2)cn1 [Comparative compound 6, N-(2-(6-methylpyridin-3-yl)benzo[d]thiazol-6-yl) carbonohydrazonoyl dicyanide, reference compound] |  | 83.9 % remaining | 69.5% | >100 % remaining | 60.8% |  | 84.7 % remaining | 32.0 % activity | 81.2 % activity | 81.7 % activity | 91.8 % activity | 80.2 % activity
